Assay results taken from patent publication US20250011322A1, “MEDICAL COMPOUND FOR THE INHIBITION OF ALDEHYDE DEHYDROGENASE SUBTYPE 1A” (Theranib Inc., priority 2023, published 2025).
pIC50: −log10 of the molar value. Entries after “also recorded” stand apart in the source; their conditions may differ.

What was measured:
[1] = target: T1, ALDH1A3 (Homo sapiens, UniProt P47895); experiment: Aldefluor test in MDA-MB-231 cells overexpressing ALDH1A3; format: cell-based; settings: for pIC50: Aldefluor test; for Inhibition of ALDH1A3-induced Aldefluor activity: dilution series of compound
T1 construct: expressed in transfected cells; host or cells: MDA-MB-231
T1 sequence (P47895 1-512): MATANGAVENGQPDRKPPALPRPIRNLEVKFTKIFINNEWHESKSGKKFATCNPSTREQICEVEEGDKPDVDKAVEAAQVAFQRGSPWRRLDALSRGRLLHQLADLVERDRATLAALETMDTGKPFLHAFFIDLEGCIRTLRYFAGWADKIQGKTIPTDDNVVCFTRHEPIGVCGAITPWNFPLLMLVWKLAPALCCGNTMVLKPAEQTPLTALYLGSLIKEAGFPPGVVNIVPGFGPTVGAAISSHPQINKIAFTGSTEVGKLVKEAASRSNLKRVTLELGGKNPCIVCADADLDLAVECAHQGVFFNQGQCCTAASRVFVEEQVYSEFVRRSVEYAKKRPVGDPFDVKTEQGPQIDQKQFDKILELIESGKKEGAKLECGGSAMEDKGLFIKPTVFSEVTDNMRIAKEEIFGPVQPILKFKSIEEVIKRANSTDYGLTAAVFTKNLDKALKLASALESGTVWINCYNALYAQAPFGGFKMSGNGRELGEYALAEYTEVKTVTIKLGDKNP
Protocol: (§1) In vitro assays were conducted on breast cancer cell lines MDA-MB-231, MDA-MB-468, and HCC1806 cells. Specifically, the MDA-MB-231 cell line, characterized by a low expression of ALDH1A, was used as such or after being engineered to overexpress the ALDH1A1 or ALDH1A3 isoform, while the MDA-MB-468 and HCC1806 cell lines, characterized by a high expression of ALDH1A3 were used as such or after being knocked down for the ALDH1A3 isoform (FIG. 1). […] The experiments were conducted using the Aldefluor® test, specific for aldehyde dehydrogenases.

[2] = test system: ALDH1A3 target genes (RARB, DHRS3, ELF3, RARRES1); experiment: Expression of ALDH1A3 target genes in breast cancer cell lines by QPCR; format: cell-based; settings: 24 hours of treatment; for Expression of ALDH1A3 target genes in ALDH1A3-expressing lines: ALDH1A3-overexpressing MDA-MB-231, MDA-MB-468 and HCC1806 cells; for Expression of ALDH1A3 target genes in native line: native MDA-MB-231 cells
Protocol: FIGS. 5A, 5B, 5C. […] Expression of DHRS3, RARB, ELF3, and RARRES1 in MDA-MB-231 cells with ALDH1A3 overexpression (FIG. 5A), MDA-MB-468 cells (with ALDH1A3 shRNA knockdown as control, FIG. 5B), and HCC1806 (with ALDH1A3 shRNA knockdown as control, FIG. 5C) is determined 24 hours after treatment with 0, 1, 10, or 100 nM compound 1 by QPCR. Significance determined by one-way Anova, p-value […], <0.01=**, <0.001=***, <0.0001=****.
Subsequently, to confirm the direct inhibitory activity of the tested compounds on the enzymatic isoform of interest, their effect on the expression of ALDH1A3 target genes, and in particular of RARB, DHRS3, ELF3, and RARRES1, was investigated in the aforementioned cell lines.

[3] = Toxicity readouts in the xenograft study: body weight, serum ALT, serum creatinine; format: in vivo, mice
Protocol: (§2) In vivo experimentation then ensued. The in vivo assays were conducted using eight-week-old female NOD/SCID mice orthotopically injected with 2×10^6 native or ALDH1A3-overexpressing MDA-MB-231 cells. 60 female NOD-SCID mice had approximately 2,000,000 MDA-MB-231 cells injected into a 5th mammary fat pad. 30 mice were injected with MDA-MB-231 bearing a vector control (Groups 1-3), and 30 mice were injected with MDA-MB-231 bearing an ALDH1A3 overexpression vector (Groups 4-6). On day 15 of inoculation, the treatment phase began. Groups 1 and 4 (n=10, 10 respectively) received saline i.p. injections 100 uL every day for 26 days. Groups 2 and 5 (n=10, 10) received 0.4 mg/kg drug i.p. in 100 uL saline every day for 26 days. Groups 3 and 6 (n=10, 10) received 4.0 mg/kg drug i.p. in 100 uL saline every day for 26 days. Caliper measurements of tumors and body weights were taken throughout the treatment phase. After 26 days, all mice were euthanized, the tumors were harvested, and blood was drawn for analysis.
This is evidenced by the trend over time of their body weight (FIG. 7) and also the analysis of alanine aminotransferase (ALT) and creatinine levels in serum collected from terminal animals (FIGS. 12A and 12B).

[4] = target: T2, ALDH1A1 (Homo sapiens, UniProt P00352); experiment: Aldefluor test in MDA-MB-231 cells overexpressing ALDH1A1; format: cell-based
T2 construct: expressed in transfected cells; host or cells: MDA-MB-231
T2 sequence (P00352 1-501): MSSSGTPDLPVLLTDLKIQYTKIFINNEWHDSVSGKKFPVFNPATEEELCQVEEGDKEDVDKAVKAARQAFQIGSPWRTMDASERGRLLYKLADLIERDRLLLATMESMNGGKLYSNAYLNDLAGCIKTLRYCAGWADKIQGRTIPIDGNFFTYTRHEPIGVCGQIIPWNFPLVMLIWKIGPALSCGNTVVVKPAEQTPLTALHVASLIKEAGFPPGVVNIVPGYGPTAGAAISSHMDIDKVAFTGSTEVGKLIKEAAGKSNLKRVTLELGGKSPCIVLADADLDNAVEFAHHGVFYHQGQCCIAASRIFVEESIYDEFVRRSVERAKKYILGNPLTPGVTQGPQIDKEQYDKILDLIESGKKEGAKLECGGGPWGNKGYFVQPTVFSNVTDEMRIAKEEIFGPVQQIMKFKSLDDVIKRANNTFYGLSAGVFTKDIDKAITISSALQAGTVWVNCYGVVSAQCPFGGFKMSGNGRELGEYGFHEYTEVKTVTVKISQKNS
Protocol: as §1

[5] = test system: MDA-MB-231 tumors; experiment: Orthotopic MDA-MB-231 xenograft (native or ALDH1A3-overexpressing) in NOD/SCID mice; format: in vivo; settings: for RARB level in tumors (pharmacodynamic analysis): ALDH1A3-overexpressing MDA-MB-231 tumors harvested day 41, treatment from day 15
Protocol: as §2
On day 15, the animals were treated with compound 1, administered daily intraperitoneally at a concentration of 0.4 mg/Kg or 4 mg/Kg, then constantly monitored for body weight increase (FIG. 7) and tumor volume (FIG. 8). Once the tumors became palpable, we started treatment of the animals (day 15). After 26 days of treatment, the animals were sacrificed and the tumors were collected and evaluated for size (FIGS. 8 and 9) and weight (FIG. 10).

[6] = MDA-MB-231 cells overexpressing ALDH1A3
[7] = MDA-MB-231 cells with ALDH1A3 overexpression
[8] = daily treatment from day 15, measured on day 41, mice

Row | Structure (SMILES) | Inhibition of Aldefluor assay activity of ALDH1A3 ([1]; 100 uM, MDA-MB-231 cells overexpressing ALDH1A3) | pIC50 [1, 6] | Inhibition of ALDH1A3-induced Aldefluor activity [1, 7] | Expression of ALDH1A3 target genes in ALDH1A3-expressing lines [2] | Expression of ALDH1A3 target genes in native line [2] | Toxicity (overall) ([3]; daily i.p. 0.4 or 4 mg/Kg for 26 days, mice) | Serum alanine aminotransferase (ALT) [3, 8] | Serum creatinine [3, 8] | Body weight ([3]; mice injected with MDA-MB-231 cells, treatment from day 15) | Inhibition of Aldefluor assay activity of ALDH1A1 ([4]; 100 uM) | Inhibition of Aldefluor activity induced by ALDH1A1 overexpression ([4]; all plotted concentrations) | Tumor growth (volume, weight) induced by ALDH1A3 ([5]; 0.4 or 4 mg/Kg i.p. daily for 26 days from day 15, NOD/SCID mice) | RARB level in tumors (pharmacodynamic analysis) [5] | RARB level in tumors (pharmacodynamic analysis) ([5]; listed as compound 1) | Amounts distinguishable from control counts in the plot of Aldefluor count ([1]; MDA-MB-231 cells with ALDH1A3 overexpression, all other concentrations not distinguishable from control)
1 | CCN(CC)c1ccc(C=O)cc1 [DEAB, 4-Diethylaminobenzaldehyde, reference compound] | inhibits | – | – | – | – | – | – | – | – | – | – | – | – | – | –
2 | CC(=O)c1ccc(-c2cc(-c3ccc(C#N)cc3)cn3cc(-c4ccccc4)nc23)cc1 [Compound 2, 4-(8-(4-acetylphenyl)-2-phenylimidazo[1,2-a]pyridin-6-yl)benzonitrile] | – | 8.03 | inhibits Aldefluor activity | statistically significantly reduced the expression of the target genes | neither compound 1 nor compound 2 produced significant results | – | – | – | – | – | – | – | – | – | –
3 | CC(=O)c1ccc(-c2cc(-c3ccc(C(C)=O)cc3)c3nc(-c4ccccc4)cn3c2)cc1 [Compound 1, 1,1′-((2-phenylimidazo[1,2-a]pyridine-6,8-diyl)bis(4,1-phenylene))bis(ethan-1-one)] | – | 8.72 | inhibits Aldefluor activity | statistically significantly reduced the expression of the target genes; also recorded: specifically inhibit the expression of ALDH1A3 target genes | neither compound 1 nor compound 2 produced significant results | no detectable toxicity | does not affect | does not affect | No significant changes were observed | did not inhibit | does not inhibit Aldefluor activity | reduce, in a statistically significant way, the increased tumor growth | reduces ALDH1A3-inducible RARB expression | significantly reduced RARB level | –
4 | c1ccc(-c2ccc3nc(-c4ccccc4)cn3c2)cc1 [GA11, reference compound] | – | ~4.00 | inhibit | – | – | – | – | – | – | – | – | – | – | – | 100 µM
